Where “and” joins values, the source holds several entries; their conditions need not be identical. Equal entries are not always repeated.
Key:
[1] = system: L. infantum; assay: Clinical evaluation (clinical score) in open-label randomized comparative clinical field trial of canine leishmaniosis; type: in vivo, dogs
Text: This was an open-label randomized comparative clinical field trial conducted in the north of Algeria. Prevalence observed in this area was 36%. Client-owned dogs of any age, breed, or gender were enrolled and 11 veterinary practitioners were responsible of the monitoring. All dogs had previously been naturally infected by L. infantum and presented clinical signs. The dogs were fully monitored and treatment could be changed to antimoniate meglumine/allopurinol at the owner's request if clinical impairment was noticed. A total of 187 dogs were enrolled for CanL. Among them, 42 adult sick dogs (30 males and 12 females), 3.8 years average age (min=1, max=11 years), weighing between 3-37 kg and of different breeds (8 german shepherd, 1 belgian shepherd malinois, 2 sloughy, 5 pointers, 6 braques, 1 bagnole, 1 americain staff, 1 beagle and 17 mixed breeds), were selected for this study.
Main inclusion criteria were: i) Dogs with at least two clinical manifestations related to CanL as detailed in the following Table 1) and ii) Dogs with positive serology for Leishmania by the immunochromatographic based qualitative rapid test WITNESS® Leishmania (Zoetis, France) and/or the quantitative indirect immunofluorescence antibody test (IFAT≥ 100) or positive PCR result obtained in blood.
Efficacy criteria were determined by reduction in clinical scores (i.e. the sum of clinical scores was lower than before treatment), in decreasing of parasite DNA and Leishmaniaspecific antibody titers. The score was defined according to the severity of each clinical sign and the final value was obtained from the sum of all the values (Table 1). Quantitative parasite load was estimated through qPCR and the antibody titers through quantitative IFAT. Table 1: Clinical signs related to CanL defined to evaluate the clinical scores of dogs.
Each manifestation was assigned a severity score ranging from 0 to 3, where 0 = none, 1 = mild, 2 = moderate, and 3 = severe (maximum total clinical score = 21). Mortality related to CanL was assessed by the highest score (22).
(§1) Selected dogs were included randomly to one of the two treatment arms. Dogs (N=26) in the Group 1: (positive control) received 100 mg/kg Antimoniate of meglumine (Glucantime®, Merial, France) daily for 28 days subcutaneously, and 30 mg/kg allopurinol (Allopurinol Arraw® 300 mg, France) orally daily for one month. Dogs (N=16) in the Group 2: (chemotherapy of the invention) received 25 mg/kg artesunate (Asu-Denk®; Denk Pharma, Germany) orally for 6 days. […] Dogs were followed up for 180 days (Figure 1).
(§2) Animals were checked on days D0, D+30, D+90 and D+180 after the treatment had started and blood samples were collected each time-points. Clinical signs and lesions associated with leishmaniosis, infection status (parasite load-qPCR and serological) were evaluated and monitored in these points.
The efficacy of treatments was assessed at each time-point based on the clinical response to treatment (evolution of clinical scores over time and the percentage reduction of the total clinical score). For each dog, the same veterinarian conducted all clinical evaluations to maintain consistency. Mortality due to CanL constitutes the higher score (22). The percentage of reduction was calculated according to the formula: Percentage reduction of CS % = (CSatD+XX−CSatD+0)/CS at D + 0) × 100 [formula]

[2] = system: L. infantum DNA; assay: Parasite load-qPCR in blood (kDNA) in the field trial; type: in vivo, dogs; design: Parasitemia (% of reduction): concentration or dose not given beside the values; details: for Parasitemia No. Leish/mL of blood / Parasitemia (% of reduction): individual dogs (one table line per dog); for Parasitemia No. Leish/mL of blood: artesunate 25 mg/kg orally 6 days, Glucantime 100 mg/kg s.c. 28 days + allopurinol 30 mg/kg orally one month
Procedure: as §1, §2
Blood samples collected in each time-point were analyzed for quantification of parasitic load by qPCR using primers and probe for detection and quantification of L. infantum DNA, targeting a conserved region of the kinetoplast minicircle DNA (kDNA) (several 1000's-fold repeated sequence). Prior to DNA extraction, 200 µL of blood were digested with proteinase K and incubated at +56°C overnight. Extraction was performed using a commercial DNA extraction kit (QIAamp DNA Mini Kit®, [Qiagen, Courtaboeuf, France]) and performed on BIOROBOT EZ1 (Qiagen, Qiagen, Courtaboeuf, France) per the manufacturer's instructions. DNA was eluted in 200 µl of distilled water and stored at -20°C until analysis. qPCR was prepared and performed as follows: 20 µL final volume containing 10 µL of Eurogentec Master Mix Roche (Eurogentec, Liège, Belgium), […] of each primer and the probe, 0.5 µL UDG, 3 µL of distilled water DNAse and RNAse free, and 5 µl of the DNA sample, was amplified in a CFX96 Real-Time system (BioRad Laboratories, Foster City, CA, USA) using the following thermal profile: one incubation step at 50°C for two minutes and an initial denaturation step at 95°C for three minutes, followed by 40 cycles of denaturation at 95°C for 15 seconds and annealing extension at 60°C for 30 seconds. Quantification was based on a standard curve which was 8 folds-serial dilution of plasmid of 10^8 copy of DNA/mL from the kDNA region, equivalent of 10000 parasites/mL; 5 µl of serial dilutions ranging from 10000 to 0.001 parasites/mL, was introduced into reaction tubes. Results were expressed as the number of Leishmania parasites present in 1 ml of blood, taking in account the volume (200 µl of blood) and the elution (200 µl) introduced during the extraction process.

[3] = system: anti-L. infantum specific immunoglobulins G (IgG); assay: Serological monitoring by quantitative IFAT in the field trial; type: in vivo, dogs; details: for Leishmania-antibody titers (mean ± SD), IFAT: artesunate 25 mg/kg orally 6 days, Glucantime 100 mg/kg s.c. 28 days + allopurinol 30 mg/kg orally one month
Procedure: as §1, §2
At day 0, the immunochromatographic based qualitative rapid test WITNESS® Leishmania (Zoetis, France) was performed according to the manufacturer's instructions using one drop (10 µL) of whole blood from each dog directly after sampling. Quantitative IFAT for the titration of anti-L. infantum specific immunoglobulins G (IgG) was performed on sera for the monitoring as described previously. Briefly, plate wells were sensitized by 20 µL of L. infantum commercial antigens (Zoetis, France). After dilution to 1:50, 20 µl of every serum dilution was applied per well and plates were incubated for 30 min at 37 °C. Plates were washed twice with PBS for 5 min and once with distilled water. 20 µL of IgG anti-dog conjugated with fluorescein isothiacyanate (FITC) (Sigma-Aldrich, St Louis, MO, USA) were added into each well. The plates were incubated for 30 min at 37 °C in the dark. After another washing step, some drops of mounting medium were added on the cover slips and reading was performed. To avoid errors of observation, all samples were examined by two different investigators and positive and negative controls were added in each plate. All samples negative at 1:50 were considered negative. Positive results were further investigated using a […] serial dilution IFAT at 1:100 to 1:1600. At this point, the samples were classified as a high positive for L. infantum (> 1:1600).

[4] = system: L. infantum life stage forms (promastigote and amastigote); details: Cortes et al., 2015; cited from earlier work
[5] = D+30, artesunate 25 mg/kg orally 6 days (n=15), Glucantime 100 mg/kg s.c. 28 days + allopurinol 30 mg/kg orally one month (n=26)
[6] = D+30, mortality related to CanL included, artesunate 25 mg/kg orally 6 days (n=15), Glucantime 100 mg/kg s.c. 28 days + allopurinol 30 mg/kg orally one month (n=26)
[7] = D+90, artesunate 25 mg/kg orally 6 days (n=15), Glucantime 100 mg/kg s.c. 28 days + allopurinol 30 mg/kg orally one month (n=23)
[8] = D+90, mortality related to CanL included, artesunate 25 mg/kg orally 6 days (n=15), Glucantime 100 mg/kg s.c. 28 days + allopurinol 30 mg/kg orally one month (n=23)
[9] = D+180, artesunate 25 mg/kg orally 6 days (n=15), Glucantime 100 mg/kg s.c. 28 days + allopurinol 30 mg/kg orally one month (n=22)
[10] = D+180, mortality related to CanL included, artesunate 25 mg/kg orally 6 days (n=15), Glucantime 100 mg/kg s.c. 28 days + allopurinol 30 mg/kg orally one month (n=22)

C[C@H]1[C@H](OC(=O)CCC(=O)O)O[C@@H]2O[C@@]3(C)CC[C@H]4[C@H](C)CC[C@@H]1[C@@]24OO3 [Artesunate]
mean percentage of reduction of clinical score, comparison between the two groups ([1]; D+30, D+90 and D+180, p<0.0001 (Mann-Whitney)): More improvement | PARTIAL AMELIORATION (%) [1, 5]: 80% | PARTIAL AMELIORATION, number of dogs [1, 5]: 12 | AGGRAVATION (%) [1, 6]: 20% | AGGRAVATION, number of dogs [1, 6]: 3 | COMPLETE AMELIORATION (%) [1, 7]: 20% | COMPLETE AMELIORATION, number of dogs [1, 7]: 3 | NO CHANGE (%) [1, 7]: 6.66% | NO CHANGE, number of dogs [1, 7]: 1 | PARTIAL AMELIORATION (%) [1, 7]: 53.33% | PARTIAL AMELIORATION, number of dogs [1, 7]: 8 | AGGRAVATION (%) [1, 8]: 20% | AGGRAVATION, number of dogs [1, 8]: 3 | PARTIAL AMELIORATION (%) ([1]; D+180 (6 months following up), artesunate 25 mg/kg orally 6 days (n=15), Glucantime 100 mg/kg s.c. 28 days + allopurinol 30 mg/kg orally one month (n=22)): 46.66% | COMPLETE AMELIORATION (%) (complete recovery, CS of 0) [1, 9]: approximately 26.66% | COMPLETE AMELIORATION, number of dogs [1, 9]: 4 | PARTIAL AMELIORATION, number of dogs [1, 9]: 7 | COMPLETE AMELIORATION (%) (complete recovery, CS of 0) ([1]; D+180, artesunate 25 mg/kg orally 6 days (n=15), Glucantime 100 mg/kg s.c. 28 days + allopurinol 30 mg/kg orally one month (n=22), listed as ARTESUNATE): 26.66% | AGGRAVATION (%) (clinical aggravation rates) [1, 10]: 26.66% | AGGRAVATION, number of dogs [1, 10]: 4 | mortality ([1]; D+180, part of the aggravation rate, artesunate 2/15, control group 4/22): 13.33% | dogs died with increasing in the clinical signs related to CanL ([1]; between D+60 after the beginning of treatments and the visit D+90): two | Parasitemia No. Leish/mL of blood ([2]; D+30): 0 No. Leish/mL of blood and 14 No. Leish/mL of blood and 44 No. Leish/mL of blood and 1,7 No. Leish/mL of blood and 0,17 No. Leish/mL of blood | Parasitemia (% of reduction) ([2]; D+30 versus D0): 100% and 19,54% and 63,93% and 99,27% and 98,45% | Parasitemia No. Leish/mL of blood ([2]; D+ 90): 0 No. Leish/mL of blood (3×) and 29 No. Leish/mL of blood | Parasitemia (% of reduction) ([2]; D+ 90 versus D0): 100% (3×) and -66,67% | Parasitemia No. Leish/mL of blood ([2]; D+ 180): 0 No. Leish/mL of blood | Parasitemia (% of reduction) ([2]; D+ 180 versus D0): 100% | initially PCR-positive dogs that turned out to be Leishmania-negative ([2]; qPCR in blood, over-time after treatment, dogs negative / dogs positive at D0): 5/5 | Leishmania-antibody titers (mean ± SD), IFAT ([3]; D+30): 128.57 ± 212.78 | dogs that became seronegative ([3]; D+ 30, artesunate 7/14, Glucantime/allopurinol 4/26): 50% | dogs with diminution in antibody titers ([3]; D+ 30, artesunate 11/14, Glucantime/allopurinol 15/26): 78.57% | Leishmania-antibody titers (mean ± SD), IFAT ([3]; D+ 180): 37.50 ± 60.77 | dogs turned seronegative ([3]; end of the follow-up, Group 1 5/17, Group 2 7/12, P-Value 0.227): 58.33% | percentage of reduction in antibody titers, comparison of groups ([3]; end of the study, P <0.0001): higher percentage of reduction | in vitro activity against L. infantum life stage forms (promastigote and amastigote) [4]: in vitro activity

CC1CCC2C(C)C(OC(=O)CCC(=O)O)OC3OC4(C)CCC1C32O4 (centres unmarked) [deoxygenated artesunate]
in vitro activity against L. infantum life stage forms (promastigote and amastigote) [4]: in vitro activity

CC1CCC2C(C)C(O)OC3OC4(C)CCC1C32O4 (centres unmarked) [deoxygenated dihydroartemisinin]
in vitro activity against L. infantum life stage forms (promastigote and amastigote) [4]: in vitro activity
